Laboratory results as given in US9814709B2, “Bruton's tyrosine kinase inhibitor” (HEFEI INSTITUTES OF PHYSICAL SCIENCE, CHINESE ACADEMY OF …, priority 2014, dated 2017).

Assays:
tyrosine Y223 on Btk = target: T1, tyrosine Y223 on Btk (Homo sapiens, UniProt Q06187); assay: Phosphorylation of BTK Y223 in anti-IgM stimulated Ramos cells; assay type: cell-based; conditions: 4 hrs treatment, anti-IgM 10 min, read-out: EC50, inhibition of phosphorylation of tyrosine Y223 on Btk
T1 construct: host or cells: Ramos cells
Description: (§1) We further characterized the properties of the compounds by assaying a number of cellular biochemical and functional endpoints. In particular, we assessed the selectivity of Compound 1 for inhibition of Btk versus the closely related protein kinases S6K, AKT, ErK, JAK3, and STAT5. Ramos cells (human B cells, purchased from ATCC) were treated with different concentrations of 10 nM, 100 nM, 1000 nM of the compounds of formula (I) for 4 hrs, followed by stimulation with anti-IgM for 10 min, and then the samples were harvested. We determined the effect of compounds on phosphorylation of BTKY223, PLCγ1Y783, PLCγ2Y759, PLCγ2Y1217, AKTT308, Erk1/2T202/204, JAK3 T980/981, STAT5 T694, mTORC1T389, MNK2 (FIG. 1).

EGFR (T790M/L858R) = target: T2, EGFR (T790M/L858R) (Homo sapiens, UniProt P00533, L858R/T790M); assay: In vitro enzymatic activity (ADP-Glo); assay type: biochemical; conditions: 4 hrs preincubation, 10 μM ATP
T2 construct: The intracellular segment (699-1068) region of EGFR was cloned into the insect expression vector pAcG2T; GST; made in house; host or cells: SF9 insect cells (baculovirus)
Description: (§2) In the experimental assay of in vitro enzymatic activity, the IC50 values of Compound 1 and Compound 19 on different kinases including BTK, EGFR (WT), EGFR/T790M, EGFR L858R/T790M, JAK1, JAK2, and JAK3 were determined. The intracellular segment (699-1068) region of EGFR was cloned into the insect expression vector pAcG2T, and was protein expressed by using an insect expression system, BaculoGold™ Baculovirus Expression System (BD Pharmingen), with GST tag. The mutations of T790M and L858R sites were performed simultaneously to give T790M single mutant vector and T790M/L858R double mutant vector of EGFR, respectively. The established vectors were transfected into SF9 packaging viruses, so as to infect the SF9-expressed proteins with the viruses; JAK1 and JAK2 were purchased from Life Technologies (US) and Abcam (US), respectively; JAK3 and BTK were purchased from Progema (US).
(§3) BTK protein kinase 9 μL (concentration of 1.5 ng/μL), JAK1, JAK2, JAK3 protein kinases 9 μL (concentration of 3 ng/μL, 3 ng/μL, 1.5 ng/μL), purified EGFR (WT), EGFR (T790M), EGFR (T790M/L858R) protein kinases 9 μL (all with concentration of 6 ng/μL) were respectively used, and each was reacted with three-fold gradient dilution of pharmaceutical Compound 1 and Compound 19 (final concentrations of the agents were 10 μM, 3 μM, 1 μM, 0.3 μM, 0.1 μM, 0.03 μM, 0.01 μM, 0.003 μM), respectively, at room temperature for 4 hrs;
(§4) 2 μL of ATP and 3 μL of substrate, Poly(4:1 Glu, Tyr)Peptide (Promega, US), were added (final concentrations are 10 μM and 0.2 μg/μL, respectively), and reacted at 37° C. for 1 hr;
(§5) 5 μL of reacted kinase solution was added into 5 μL of ADP-Glo™ (Promega, US) and reacted at room temperature for 40 min, the kinase reaction was stopped and the remained ATP was consumed;
(§6) 10 μL of kinase detection reagent was added to transfer ADP into ATP, and the newly obtained ATP was detected by using coupled luciferase/fluorescein reaction, then the IC50 values were calculated by using a plotting method based on the Envision reading.

JAK3 = target: T3, JAK3 (Homo sapiens, UniProt P52333); assay: In vitro enzymatic activity (ADP-Glo); assay type: biochemical; conditions: 4 hrs preincubation, 10 μM ATP
T3 construct: purchased Progema (US) [sic; Promega]
Description: as §2, §3, §4, §5, §6

EGFR (T790M) = target: T4, EGFR (T790M) (Homo sapiens, UniProt P00533, T790M); assay: In vitro enzymatic activity (ADP-Glo); assay type: biochemical; conditions: 4 hrs preincubation, 10 μM ATP
T4 construct: The intracellular segment (699-1068) region of EGFR was cloned into the insect expression vector pAcG2T; GST; made in house; host or cells: SF9 insect cells (baculovirus)
Description: as §2, §3, §4, §5, §6

EGFR (WT) = target: T5, EGFR (WT) (Homo sapiens, UniProt P00533); assay: In vitro enzymatic activity (ADP-Glo); assay type: biochemical; conditions: 4 hrs preincubation, 10 μM ATP
T5 construct: The intracellular segment (699-1068) region of EGFR was cloned into the insect expression vector pAcG2T; GST; made in house; host or cells: SF9 insect cells (baculovirus)
Description: as §2, §3, §4, §5, §6

BTK = BTK (Homo sapiens, UniProt Q06187); assay: In vitro enzymatic activity (ADP-Glo); assay type: biochemical; design: purchased Progema (US) [sic; Promega]; conditions: 4 hrs preincubation, 10 μM ATP
Description: as §2, with “(US). […]” for “(US).”
as §6

[1] = test system: PLCγ2Y1217 phosphorylation; assay: Phosphorylation of PLCγ2 Y1217 in anti-IgM stimulated Ramos cells; assay type: cell-based; conditions: Homo sapiens, 4 hrs treatment, anti-IgM 10 min, read-out: EC50, inhibition of phosphorylation of PLCγ2Y1217
Description: as §1

T5 sequence (P00533 699-1068): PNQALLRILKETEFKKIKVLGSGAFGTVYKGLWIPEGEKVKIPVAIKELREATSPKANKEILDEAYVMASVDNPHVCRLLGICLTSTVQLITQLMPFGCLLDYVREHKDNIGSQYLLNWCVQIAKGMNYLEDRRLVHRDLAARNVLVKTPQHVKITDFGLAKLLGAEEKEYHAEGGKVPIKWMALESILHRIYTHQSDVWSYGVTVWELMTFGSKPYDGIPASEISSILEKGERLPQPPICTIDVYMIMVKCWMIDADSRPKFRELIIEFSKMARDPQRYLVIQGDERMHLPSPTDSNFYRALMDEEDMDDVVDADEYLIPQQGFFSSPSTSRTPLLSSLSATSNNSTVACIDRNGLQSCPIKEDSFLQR
T1 sequence (Q06187 whole entry): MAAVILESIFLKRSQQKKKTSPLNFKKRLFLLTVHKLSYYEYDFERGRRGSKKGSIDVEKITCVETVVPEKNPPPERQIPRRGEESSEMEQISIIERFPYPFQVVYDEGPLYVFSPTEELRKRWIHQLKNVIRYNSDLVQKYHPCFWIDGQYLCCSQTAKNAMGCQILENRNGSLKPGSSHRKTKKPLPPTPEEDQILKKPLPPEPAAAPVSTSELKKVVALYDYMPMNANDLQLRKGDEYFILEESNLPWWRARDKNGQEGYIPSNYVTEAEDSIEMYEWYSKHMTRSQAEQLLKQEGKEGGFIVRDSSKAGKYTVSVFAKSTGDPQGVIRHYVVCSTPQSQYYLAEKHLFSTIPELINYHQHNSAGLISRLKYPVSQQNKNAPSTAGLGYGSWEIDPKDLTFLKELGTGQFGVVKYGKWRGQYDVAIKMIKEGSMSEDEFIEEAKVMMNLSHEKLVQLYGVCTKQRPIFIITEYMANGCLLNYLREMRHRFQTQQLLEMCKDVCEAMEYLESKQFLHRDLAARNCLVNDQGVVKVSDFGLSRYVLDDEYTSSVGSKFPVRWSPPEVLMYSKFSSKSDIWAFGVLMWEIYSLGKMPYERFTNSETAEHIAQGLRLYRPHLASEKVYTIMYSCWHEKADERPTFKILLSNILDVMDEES
BTK, sequence (Q06187 whole entry): as above
T2 sequence (P00533 699-1068 T790M/L858R): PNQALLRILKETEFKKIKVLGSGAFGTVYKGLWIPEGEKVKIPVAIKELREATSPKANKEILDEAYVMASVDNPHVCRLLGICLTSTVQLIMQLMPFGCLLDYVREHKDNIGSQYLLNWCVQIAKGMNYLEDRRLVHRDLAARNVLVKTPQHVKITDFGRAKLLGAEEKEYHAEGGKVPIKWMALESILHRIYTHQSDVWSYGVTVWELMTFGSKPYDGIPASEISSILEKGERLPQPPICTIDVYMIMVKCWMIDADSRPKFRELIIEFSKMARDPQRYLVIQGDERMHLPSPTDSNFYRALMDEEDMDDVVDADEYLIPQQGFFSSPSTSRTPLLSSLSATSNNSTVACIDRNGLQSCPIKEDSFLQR
T3 sequence (P52333 whole entry): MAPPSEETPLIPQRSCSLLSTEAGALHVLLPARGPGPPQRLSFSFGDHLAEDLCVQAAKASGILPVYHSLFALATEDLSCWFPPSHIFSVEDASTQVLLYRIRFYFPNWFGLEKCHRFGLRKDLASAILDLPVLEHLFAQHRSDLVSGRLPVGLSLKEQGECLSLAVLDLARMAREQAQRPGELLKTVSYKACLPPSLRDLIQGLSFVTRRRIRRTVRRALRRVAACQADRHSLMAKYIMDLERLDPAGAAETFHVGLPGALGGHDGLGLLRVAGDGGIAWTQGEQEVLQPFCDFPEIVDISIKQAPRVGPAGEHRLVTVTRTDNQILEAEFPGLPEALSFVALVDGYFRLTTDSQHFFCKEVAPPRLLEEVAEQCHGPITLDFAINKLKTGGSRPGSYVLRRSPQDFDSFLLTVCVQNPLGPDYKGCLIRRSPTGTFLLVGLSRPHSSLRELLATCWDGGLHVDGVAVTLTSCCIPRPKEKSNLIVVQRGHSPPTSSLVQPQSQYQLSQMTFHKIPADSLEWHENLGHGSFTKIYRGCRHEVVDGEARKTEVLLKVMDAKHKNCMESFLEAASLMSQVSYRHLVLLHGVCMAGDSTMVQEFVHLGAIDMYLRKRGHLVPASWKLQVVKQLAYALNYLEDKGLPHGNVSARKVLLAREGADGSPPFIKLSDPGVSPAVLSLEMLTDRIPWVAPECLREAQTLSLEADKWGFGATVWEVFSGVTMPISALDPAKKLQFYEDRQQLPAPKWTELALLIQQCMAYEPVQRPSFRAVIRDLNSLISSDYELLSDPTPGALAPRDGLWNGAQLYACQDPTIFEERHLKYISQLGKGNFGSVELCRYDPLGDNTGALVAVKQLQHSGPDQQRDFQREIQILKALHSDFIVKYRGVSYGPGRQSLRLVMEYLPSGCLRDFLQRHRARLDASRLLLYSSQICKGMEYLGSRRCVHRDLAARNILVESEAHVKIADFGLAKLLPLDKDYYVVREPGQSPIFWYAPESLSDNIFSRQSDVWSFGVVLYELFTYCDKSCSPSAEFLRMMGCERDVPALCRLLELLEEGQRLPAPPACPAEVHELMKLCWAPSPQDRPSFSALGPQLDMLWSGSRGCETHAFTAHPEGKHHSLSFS
T4 sequence (P00533 699-1068 T790M): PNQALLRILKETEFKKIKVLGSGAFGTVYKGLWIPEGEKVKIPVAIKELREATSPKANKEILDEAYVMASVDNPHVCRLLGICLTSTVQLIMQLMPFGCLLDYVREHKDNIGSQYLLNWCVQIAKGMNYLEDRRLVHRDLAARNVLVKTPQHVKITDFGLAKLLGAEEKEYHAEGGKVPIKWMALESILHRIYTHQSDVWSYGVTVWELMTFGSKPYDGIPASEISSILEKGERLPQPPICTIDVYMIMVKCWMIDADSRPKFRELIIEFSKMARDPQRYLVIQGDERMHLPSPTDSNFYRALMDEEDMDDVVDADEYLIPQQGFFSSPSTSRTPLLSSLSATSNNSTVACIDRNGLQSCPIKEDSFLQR

C=CC(=O)Nc1cc(-n2c(=O)ccc3cnc4ccc(-n5cccn5)cc4c32)ccc1C [Compound 1, N-(2-methyl-5-(2-oxo-9-(1H-pyrazol-1-yl)benzo[H][1,6]naphthyridin-1(2H)-yl)phenyl)acrylamide]
EC50 (tyrosine Y223 on Btk): 217 nM | IC50 (EGFR (T790M/L858R)): 1340 nM | IC50 (JAK3): 169 nM | IC50 (EGFR (T790M)): 5500 nM | IC50 (EGFR (WT)): 2450 nM | IC50 (BTK): 75.6 nM | EC50 [1]: 360 nM
